Assay results as given in patent US20230293482A1, “CENTRAL NERVOUS SYSTEM POTENTIATING COMPOSITION” (priority 2020, published 2023).

Assays:
healthy volunteers = test: Astringency sensory test, solutions held in oral cavity; format: in vivo, human; settings: for astringency felt on oral ingestion: compared with other polyphenol compounds; for concentration at which astringency is exhibited in almost all cases: gradually diluted solutions held in oral cavity, ten healthy volunteers
From the text: Ten healthy volunteers held in their oral cavity, solutions obtained by gradually diluting (2R,3R)-2-(3,4-dihydroxyphenyl)-3,4-dihydro-2H-chromene-3,5,7-triol, and a dimer, a trimer or a tetramer obtained by condensing the above compound by a 4β→8 bond, 2-(3,4-dihydroxyphenyl)chromenylium-3,5,7-triol or 2-(3,4,5-trihydroxylphenyl)chromenylium-3,5,7-triol, 2-(3,4-hydroxyphenyl-3,5,7-trihydroxy-4H-1-benzopyran-4-one (quercetin), (2R,3R)-5,7-dihydroxy-2-(3,4,5-trihydroxyphenyl)-3,4-dihydro-2H-chromen-3-yl] 3,4,5-trihydroxybenzoate (EGCG), (2S)-5-hydroxy-2-(3-hydroxy-4-methoxyphenyl)-7-[(2S,3R,4S,5S,6R)-3,4,5-trihydroxy-6-[[(2R,3R,4R,5R,6S)-3,4,5- trihydroxy-6-methyloxan-2-yl]oxymethyl]oxan-2-yl]oxy -2,3-dihydrochromen-4-one (hesperidin), 7-hydroxy-3-(4-hydroxyphenyl)chromen-4-one (daidzein), and (1E,6E)-1,7-bis(4-hydroxy-3-methoxyphenyl)hepta-1,6-diene-3,5-dione (curcumin), and the concentrations at which the volunteers felt astringency were then observed.

Wistar male rats [1] = test: Blood flow of the cremasteric arteriole, 50% effective dose; format: in vivo; settings: 1, 10, 100, 1000 μg/kg of body weight intragastric, 60 minutes after administration, laser Doppler
Description: Cannula was inserted into the stomach of Wistar male rats under anesthesia, and the cremaster muscle was prepared, Not only a dimer, a trimer or a tetramer obtained by condensing (2R,3R)-2-(3,4-dihydroxyphenyl)-3,4-dihydro-2H-chromene-3,5,7-triol by a 4β→8 bond, 2-(3,4-dihydroxylphenyl)chromenylium-3,5,7-triol, or 2-(3,4,5-trihydroxyphenyl)chromenylium-3,5,7-triol, but also (2R,3R)-2-(3,4-dihydroxyphenyl)-3,4-dihydro-2H-chromene-3,5,7-triol, 2-(3,4-hydroxyphenyl-3,5,7-trihydroxy-4H-1-benzopyran-4-one (quercetin), (2R,3R)-5,7-dihydroxy-2-(3,4,5-trihydroxyphenyl)-3,4-dihydro-2H-chromen-3-yl] 3,4,5-trihydroxybenzoate (EGCG), (2S)-5-hydroxy-2-(3-hydroxy-4-methoxyphenyl)-7-[(2S,3R,4S,5S,6R)-3,4,5-trihydroxy-6-[[(2R,3R,4R,5R,6S)-3,4,5-trihydroxy-6-methylaxan-2-yl]oxymethyl]oxan-2-yl]oxy-2,3-dihydrochromen-4-one (hesperidin), 7-hydroxy-3(4-hydroxyphenyl)chromen-4-one (daidzein), (1E,6E)-1,7-bis(4-hydroxy-3-methoxyphenyl)hepta-1,6-diene-3,5-dione (curcumin), 5-[(E)-2-(4-hydroxyphenypenyl)ethenyl]-1,3-benzenediol (resveratrol), and (2R,3R)-2-(4-hydroxyphenyl)-3-(3,5-dihydroxyphenyl)-6-[(E)-4-hydroxystyryl]-2,3-dihydrobenzofuran-4-ol (Gnefin C), were administered to the rats at doses of 1, 10, 100, and 1000 μg/kg of body weight. A fluctuation in the blood flow of the cremasteric arteriole 60 minutes after the administration was measured using a laser Doppler blood-flowmeter. […] The 50% effective dose of the compound obtained by condensing (2R,3R)-2-(3,4-dihydroxyphenyl)-3,4-dihydro-2H-chromene-3,5,7-triol by a 4β→8 bond was in the range of 1 to 30 μg/kg of body weight, whereas the 50% effective dose of 2-(3,4-dihydroxyphenyl)chromenylium-3,5,7-triol or 2-(3,4,5-trihydroxylphenyl)chromenylium-3,5,7-triol was in the range of 50 to 100 μg/kg of body weight.

Wistar male rats [2] = test: Blood pressure after repeated administration with/without N-acetylcysteine; format: in vivo
Description: Wistar male rats were divided into 4 groups, and thereafter, 2-(3,4-dihydroxyphenyl)-3-(D-glucopyranooxyl)chromenylium-3,5,7-triol (1 mg/kg of body weight) and/or N-acetylcysteine (100 mg/kg of body weight) were co-administered to the laboratory animals for 14 days. Thereafter, the blood pressure of the animals was measured over time, using a non-heated type sphygmomanometer.

Wistar male rats [3] = test: Neovascularization, CD31 immunostaining of muscle; format: in vivo; settings: 1 mg/kg of body weight for 14 days, compared with control group
Description: Wistar male rats were divided into 2 groups, and thereafter, a tetramer of 2-(3,4-dihydroxyphenyl)-3-(D-glucopyranooxyl)chromenylium-3,5,7-triol (1 mg/kg of body weight) was co-administered. to the laboratory animals for 14 days, Thereafter, the animals were subjected to dissection. A frozen section was prepared from the excised extensor digitorum longus muscle or soleus muscle, and CD31 serving as a neovascularization marker was then detected by applying an immunostaining method.

C57BL/6 male mice = test: Open field locomotor activity / wakening after single administration; format: in vivo; settings: 25 μg/kg of body weight, open field 60 minutes; for locomotor activity: compared with control group; for wakening state: control animals repeated sleeping and wakening

| Structure (SMILES) | astringency felt on oral ingestion (healthy volunteers) | concentration at which astringency is exhibited in almost all cases (healthy volunteers) | fluctuation in the blood flow of the cremasteric arteriole (Wistar male rats [1]) | blood pressure change on co-administration with N-acetylcysteine (Wistar male rats [2]; 1 mg/kg of body weight + N-acetylcysteine 100 mg/kg for 14 days) | blood pressure (Wistar male rats [2]; 1 mg/kg of body weight for 14 days, Day 7 and Day 14) | CD31 expression / neovascularization in extensor digitorum longus or soleus muscle (Wistar male rats [3]) | locomotor activity (C57BL/6 male mice) | wakening state (C57BL/6 male mice) |
| --- | --- | --- | --- | --- | --- | --- | --- | --- |
| Oc1cc(O)c2cc(O)c(-c3cc(O)c(O)c(O)c3)[o+]c2c1 [2-(3,4,5-trihydroxylphenyl)chromenylium-3,5,7-triol] | strong astringency | 10 µg/mL | dose-dependent blood flow-increasing action | – | – | – | – | – |
| OC[C@H]1OC(Oc2cc3c(O)cc(O)cc3[o+]c2-c2ccc(O)c(O)c2)[C@H](O)[C@@H](O)[C@@H]1O (stereo partly drawn) [2-(3,4-dihydroxyphenyl)-3-(D-glucopyranooxyl)chromenylium-3,5,7-triol] | – | – | – | disappeared | significantly decreased | a significant expression of CD31 was observed | – | – |
| Oc1cc(O)c2cc(O)c(-c3ccc(O)c(O)c3)[o+]c2c1 [2-(3,4-dihydroxyphenyl)chromenylium-3,5,7-triol] | strong astringency | 10 µg/mL | dose-dependent blood flow-increasing action | – | – | – | significantly increased | the animals were in a wakening state |
| Oc1cc(O)c2c(c1)O[C@H](c1ccc(O)c(O)c1)[C@H](O)[C@H]2c1c(O)cc(O)c2c1O[C@H](c1ccc(O)c(O)c1)[C@H](O)C2 [dimer] | – | 10 µg/mL | dose-dependent blood flow-increasing action | – | – | – | significantly increased | the animals were in a wakening state |
| Oc1cc(O)c2c(c1)O[C@H](c1ccc(O)c(O)c1)[C@H](O)[C@H]2c1c(O)cc(O)c2c1O[C@H](c1ccc(O)c(O)c1)[C@H](O)[C@H]2c1c(O)cc(O)c2c1O[C@H](c1ccc(O)c(O)c1)[C@H](O)C2 [trimer] | – | 10 µg/mL | dose-dependent blood flow-increasing action | – | – | – | significantly increased | the animals were in a wakening state |
